Measurements taken from patent publication US20160166487A1, “TOPICAL COMPOSITIONS FOR TREATMENT OF EXCESSIVE SWEATING AND METHODS OF USE THEREOF” (GLAXOSMITHKLINE INTELLECTUAL PROPERTY DEVELOPMENT LIMITED, priority 2013, published 2016).

Legend:
[1] = Population pharmacokinetic model of IV and occluded axilla plasma data; format: in vivo, human
Description: Of the drug that was available systemically, 9.70% (66.7%) was absorbed through a zero order process.

[2] = 0.5 mg (500 mcg) inhaled once daily for 10 days, thorough QT study; cited from earlier work
[3] = Clinical study, single topical [14C] umeclidinium dose to axilla or palm of healthy male subjects; format: in vivo, human
Description: Up to four cohorts were to be enrolled (Cohort A: unoccluded axilla; Cohort B: occluded axilla; Cohort C: unoccluded palm; Cohort D: occluded palm). Six subjects were to be dosed in each cohort and complete the study procedures.
On the day of dosing, subjects will receive the study drug applied to the axilla or palm. Each subject will only receive a single dose of study drug which will be applied to the test site and remain on the application site for 8 hours. Serial blood samples will be collected throughout treatment. An interim analysis using simulations will be conducted after each cohort to determine the likelihood of exceeding the safety cover for Cmax or AUC and the likelihood of obtaining quantifiable concentrations sufficient to determine the half-life in the subsequent cohorts.

[4] = Irritation potential of topical solution; details: solution comprising 2.2% w/w umeclidinium bromide
[5] = MALDI imaging of distribution in skin layers; format: in vitro ADME, human; details: twenty-four hours after single finite topical dose
Description: Matrix-assisted laser desorption/ionization (MALDI) has emerged as a powerful and diverse technology for analyzing the spatial distribution of endogenous and exogenous compounds directly from a tissue section. [See Seeley E H, Caprioli R M. MALDI imaging mass spectrometry of human tissue: method challenges and clinical perspectives. Trends Biotechnol. 29(3), 136-143 (2011); and Svatos A. Mass spectrometric imaging of small molecules. Trends Biotechnol. 28(8), 425-434 (2010)]. […] Anal Bioanal Chem. (2013); 405(4):1159-70]. MALDI imaging in human skin tissue sections: focus on various matrices and enzymes.

- estimated absolute plasma bioavailability, mean (RSE %) ([1]; administration to occluded axilla, RSE 55.3%): 0.19%
- share of systemically available drug absorbed through a zero order process, mean (RSE %) ([1]; occluded axilla, RSE 66.7%): 9.70%
- percent dose recovered from the skin surface, mean ([3]; Cohort A, unoccluded axilla, end of 8 hour application, range 77.7-84.1%): 80.6%
- median time to maximum plasma concentration ([3]; Cohort A, unoccluded axilla, range: 12 h-30 h): 13 h
- percent dose recovered from the skin surface, mean ([3]; Cohort B, occluded axilla, range 69.2%-81.7%): 75.4%
- median time to maximum concentration ([3]; Cohort B, occluded axilla, range: 2 h-24 h): 13 h
- plasma concentrations ([3]; Cohort D, occluded palm): no quantifiable plasma concentrations
- percent dose recovered from the skin surface, mean ([3]; Cohort D, occluded palm, range 45.6%-59.9%): 52.5%
Structure (SMILES): OC(c1ccccc1)(c1ccccc1)C12CC[N+](CCOCc3ccccc3)(CC1)CC2 [umeclidinium, 4-[hydroxy(diphenyl)methyl]-1-{2-[(phenylmethyl)oxy]ethyl}-1-azoniabicyclo[2.2.2]octane]
- tolerability [2]: well tolerated
- irritation potential [4]: low irritation potential
- qualitative distribution in the skin layers [5]: penetrated to the deeper sections of the dermis and accumulated in the area where the sweat glands are present
